Consider 18 compounds from PubChem BioAssay AID192 (DTP/NCI, 2004).

This assay deals with BDF1 mice, B16 melanoma ip, median survival T/C. In words: NCI In Vivo Anticancer Drug Screen. Data for tumor model B16 Melanoma (intraperitoneal) in B6D2F1 (BDF1) mice. Conditions: endpoint: median survival time, higher = longer survival. In outline:
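Transplantable tumor model; survival or tumor size measured; reported as T/C, treated over vehicle control.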

Where [1] appears, read: dose: 100.0 mg/kg/injection, schedule: Q01DX009 (ip), vehicle: Klucel (hydroxypropylcellulose) (HPC).
The mark [2] stands for this setting: dose: 200.0 mg/kg/injection, schedule: Q01DX009 (ip), vehicle: Klucel (hydroxypropylcellulose) (HPC).
Where [3] appears, read: dose: 3.13 mg/kg/injection, schedule: Q01DX009 (ip), vehicle: saline.
Where [4] appears, read: dose: 6.25 mg/kg/injection, schedule: Q01DX009 (ip), vehicle: saline.
Setting [5] is: dose: 400.0 mg/kg/injection, schedule: Q01DX009 (ip), vehicle: Klucel (hydroxypropylcellulose) (HPC).
Setting [6] is: dose: 3.12 mg/kg/injection, schedule: Q01DX009 (ip), vehicle: Klucel (hydroxypropylcellulose) (HPC).
[7] abbreviates: dose: 6.25 mg/kg/injection, schedule: Q01DX009 (ip), vehicle: Klucel (hydroxypropylcellulose) (HPC).
[8] abbreviates: dose: 12.5 mg/kg/injection, schedule: Q01DX009 (ip), vehicle: Klucel (hydroxypropylcellulose) (HPC).

SMILES strings stand for the structures. “And” between values parts separate entries of the source, which are not always exact repeats. Equal values may be shown once. Inconclusive results and toxic doses are left out.

In the case of `CN(Cc1cnc2nc(N)nc(N)c2n1)c1ccc(C(=O)N[C@@H](CCC(=O)O)C(=O)O)cc1`, the T/C is, setting by setting: (dose: 0.25 mg/kg/injection, schedule: Q01DX009 (ip), vehicle: saline) 102 % of control; (dose: 0.25 mg/kg/injection, schedule: Q01DX017 (ip), vehicle: saline) 107 % of control; (dose: 0.37 mg/kg/injection, schedule: Q01DX009 (ip), vehicle: sodium bicarbonate) 93 % of control and 103 % of control; (dose: 0.5 mg/kg/injection, schedule: Q01DX009 (ip), vehicle: sodium bicarbonate) 92 % of control and 103 % of control (2×); (dose: 0.5 mg/kg/injection, schedule: Q01DX017 (ip), vehicle: saline) 104 % of control; (dose: 0.75 mg/kg/injection, schedule: Q01DX009 (ip), vehicle: sodium bicarbonate) 104 % of control and 105 % of control. Also, the T/C was 111 % of control (dose: 1.0 mg/kg/injection, schedule: Q01DX017 (ip), vehicle: saline); 92 % of control (dose: 1.5 mg/kg/injection, schedule: Q01DX009 (ip), vehicle: saline); 98 % of control and 106 % of control (dose: 1.5 mg/kg/injection, schedule: Q01DX009 (ip), vehicle: sodium bicarbonate); 88 % of control (dose: 2.0 mg/kg/injection, schedule: Q01DX017 (ip), vehicle: saline); 107 % of control (dose: 2.0 mg/kg/injection, schedule: Q04DX005 (ip), vehicle: saline); 94 % of control and 100 % of control (dose: 3.0 mg/kg/injection, schedule: Q01DX009 (ip), vehicle: sodium bicarbonate). The T/C by setting is: (dose: 4.0 mg/kg/injection, schedule: Q04DX003 (ip), vehicle: saline) 113 % of control; (dose: 4.0 mg/kg/injection, schedule: Q04DX005 (ip), vehicle: saline) 109 % of control; (dose: 6.0 mg/kg/injection, schedule: Q01DX009 (ip), vehicle: sodium bicarbonate) 90 % of control; (dose: 8.0 mg/kg/injection, schedule: Q04DX003 (ip), vehicle: saline) 109 % of control; (dose: 8.0 mg/kg/injection, schedule: Q04DX005 (ip), vehicle: saline) 104 % of control; (dose: 16.0 mg/kg/injection, schedule: Q04DX003 (ip), vehicle: saline) 109 % of control. The T/C was 97 % of control (dose: 16.0 mg/kg/injection, schedule: Q04DX005 (ip), vehicle: saline); 121 % of control (dose: 32.0 mg/kg/injection, schedule: Q01DX001 (ip), vehicle: saline); 106 % of control (dose: 32.0 mg/kg/injection, schedule: Q04DX003 (ip), vehicle: saline); 123 % of control (dose: 128.0 mg/kg/injection, schedule: Q01DX001 (ip), vehicle: saline).
Take `NNC(=O)c1ccccn1`: the T/C is, setting by setting: (dose: 25.0 mg/kg/injection, schedule: Q01DX009 (ip), vehicle: water) 106 % of control; (dose: 50.0 mg/kg/injection, schedule: Q01DX009 (ip), vehicle: water) 113 % of control.
For `COc1ccc(NC(=O)Nc2ccccc2F)cc1`, the T/C was 97 % of control under setting [1] and 97 % of control under setting [2].
`C=C1CC(OC(=O)C(C)(O)CCl)C2C(=C)C(=O)OC2C2C1CC(O)C2(O)CCl` (stereo not given): the T/C by setting is: (dose: 3.0 mg/kg/injection, schedule: Q01DX009 (ip), vehicle: Klucel (hydroxypropylcellulose) (HPC)) 104 % of control; (dose: 6.0 mg/kg/injection, schedule: Q01DX009 (ip), vehicle: Klucel (hydroxypropylcellulose) (HPC)) 101 % of control; (dose: 12.0 mg/kg/injection, schedule: Q01DX009 (ip), vehicle: Klucel (hydroxypropylcellulose) (HPC)) 101 % of control; (dose: 24.0 mg/kg/injection, schedule: Q01DX009 (ip), vehicle: Klucel (hydroxypropylcellulose) (HPC)) 93 % of control.
On to `CN(C)c1ccc(/C=C/c2cc[n+](C)cc2)cc1`, for which the T/C (dose: 1.32 mg/kg/injection, schedule: Q04DX003 (ip), vehicle: saline with Tween-80) is 95 % of control; the T/C (dose: 4.0 mg/kg/injection, schedule: Q04DX003 (ip), vehicle: saline with Tween-80) was 150 % of control; the T/C (dose: 8.0 mg/kg/injection, schedule: Q04DX003 (ip), vehicle: saline with Tween-80) was 117 % of control.
For the compound `CC1=CC(=O)[C@@H](O)[C@]2(C)[C@H]3[C@@]4(O)OC[C@]35[C@H]([C@@H](C)[C@H]4O)[C@@H](OC(=O)c3ccccc3)C(=O)O[C@@H]5C[C@@H]12`, the T/C is 118 % of control (dose: 0.25 mg/kg/injection, schedule: Q01DX009 (ip), vehicle: saline with Tween-80) and 171 % of control (dose: 2.0 mg/kg/injection, schedule: Q01DX009 (ip), vehicle: saline with Tween-80).
Take `CSCCC(N)C(=O)O` (stereo not given): the T/C (dose: 40.0 mg/kg/injection, schedule: Q01DX009 (ip), vehicle: saline with Tween-80) is 103 % of control and 106 % of control; the T/C (dose: 80.0 mg/kg/injection, schedule: Q01DX009 (ip), vehicle: saline with Tween-80) is 102 % of control and 108 % of control; the T/C (dose: 160.0 mg/kg/injection, schedule: Q01DX009 (ip), vehicle: saline with Tween-80) is 113 % of control and 118 % of control; the T/C (dose: 320.0 mg/kg/injection, schedule: Q01DX009 (ip), vehicle: saline with Tween-80) was 94 % of control and 100 % of control.
With `C=C(C)[C@@H]1CC[C@@H]2C(=CC[C@]3(C)C([C@H](C)CC/C=C(/C)C(=O)O)CC[C@@]23C)[C@@]1(C)CCC(=O)O` (stereo not given in full), the T/C (dose: 22.5 mg/kg/injection, schedule: Q01DX009 (ip), vehicle: saline + alcohol) was 98 % of control and the T/C (dose: 45.0 mg/kg/injection, schedule: Q01DX009 (ip), vehicle: saline + alcohol) is 98 % of control.
For `O=S1(=O)N2CN3CN(C2)CN1C3`, the T/C is, setting by setting: (dose: 50.0 mg/kg/injection, schedule: Q01DX009 (ip), vehicle: Klucel (hydroxypropylcellulose) (HPC)) 103 % of control; under setting [1], 86 % of control.
In the case of `COc1ccc2c(c1)c(C#N)cc[n+]2C`, the T/C was 102 % of control under setting [3] and 100 % of control under setting [4].
For `CCCN(CCC)C(=O)c1ccncc1`, the T/C reads like this: under setting [1], 93 % of control; under setting [5], 95 % of control.
As for `Nc1ccn(C2OC(COC(=O)C34CC5CC(CC(C5)C3)C4)C(O)C2O)c(=O)n1` (stereo not given), the T/C reads like this: (dose: 6.25 mg/kg/injection, schedule: Q01DX009 (ip), vehicle: saline with Tween-80) 115 % of control; (dose: 12.5 mg/kg/injection, schedule: Q01DX009 (ip), vehicle: saline with Tween-80) 153 % of control; (dose: 25.0 mg/kg/injection, schedule: Q01DX009 (ip), vehicle: saline with Tween-80) 155 % of control and 191 % of control.
In the case of `S=P(Nc1ccccc1)(Nc1ccccc1)c1ccccc1`, the T/C under setting [1] was 104 % of control, the T/C under setting [2] is 96 % of control and the T/C under setting [5] is 87 % of control.
Regarding `Clc1ccc(C[P+](c2ccccc2)(c2ccccc2)c2ccccc2)cc1Cl`, the T/C reads like this: under setting [6], 103 % of control; under setting [7], 101 % of control; under setting [8], 107 % of control.
As for `N=C(N)c1nn(C2OC(CO)C(O)C2O)c2ncnc(N)c12` (stereo not given), the T/C was 97 % of control (dose: 0.78 mg/kg/injection, schedule: Q01DX009 (ip), vehicle: Klucel (hydroxypropylcellulose) (HPC)); 98 % of control (dose: 1.56 mg/kg/injection, schedule: Q01DX009 (ip), vehicle: Klucel (hydroxypropylcellulose) (HPC)); 93 % of control and 99 % of control under setting [6]; 102 % of control under setting [7]; 90 % of control under setting [8]; 101 % of control (dose: 25.0 mg/kg/injection, schedule: Q01DX009 (ip), vehicle: Klucel (hydroxypropylcellulose) (HPC)).
As for `C=COCC(C)C` (tested in a mixture with another compound), the T/C runs as follows: (dose: 0.39 mg/kg/injection, schedule: Q01DX009 (ip), vehicle: saline) 108 % of control; (dose: 0.78 mg/kg/injection, schedule: Q01DX009 (ip), vehicle: saline) 100 % of control; (dose: 1.56 mg/kg/injection, schedule: Q01DX009 (ip), vehicle: saline with Tween-80) 88 % of control; (dose: 1.56 mg/kg/injection, schedule: Q01DX009 (ip), vehicle: saline) 88 % of control and 94 % of control; under setting [3], 89 % of control; under setting [4], 86 % of control.
In the case of `C=CCc1ccc(C)c(C)c1O`, the T/C (dose: 100.0 mg/kg/injection, schedule: Q04DX003 (sc), vehicle: olive oil, sesame oil, peanut oil) was 91 % of control.
Turning to `CC(C)[NH-].CC(C)[NH-].[Cl][Pt+2][Cl]`, under “dose: 12.5 mg/kg/injection, schedule: Q01DX009 (ip), vehicle: dextrose”, the T/C was 155 % of control.
